# ± gives the expanded uncertainty stated by the source.
# Tests used:
# [1] = Molar enthalpy of transition or fusion; conditions: Crystal; DSC
# [2] = Crystal; DTA
compound,measurement,setting,value
"O=C(O)c1c(O)cccc1O [2,6-dihydroxybenzoic acid]",Molar enthalpy of transition or fusion,[1],6.05 ± 0.382 kcal/mol
same,Normal melting temperature,[2],167.1 ± 4 °C
